Measurements published in PubChem BioAssay AID1963436 (Molecular Pharmacology Branch, DTP, NCI, 2024).
Several values for one entry are separate records, joined by “and”; a condition that tells them apart may be missing. Identical values can stand only once.

System: OVCAR-5 complex spheroid (HUVEC/MSC), viability % T/C
Experiment: Anticancer human tumor OVCAR-5 cell line growth inhibition [Asc];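 note: spheroids exposed to agents for 7 days before readout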;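 for viability, T/C: 100% = DMSO vehicle-treated wells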
Conditions: for viability, T/C: stronger effect = lower value; active = viability on the fitted dose curve at most 10% of control; inactive = the rest
Summary of the method: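 Tumor cells were grown as multicellular spheroids with stromal HUVEC and mesenchymal stem cells and treated singly or in combination. Concentrations fell in half-log steps from the clinical Cmax, or from 10 microM where none was known.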

[1] = curve of first compound, second compound 0.01 µM
[2] = curve of first compound, second compound 0.0316 µM
[3] = curve of first compound, second compound 0.1 µM
[4] = curve of first compound, second compound 0.316 µM
[5] = curve of first compound, second compound 1 µM
[6] = second compound 0.01 µM, first compound 0.0316 µM
[7] = second compound 0.01 µM, first compound 0.1 µM
[8] = second compound 0.0316 µM, first compound 0.0316 µM
[9] = second compound 0.0316 µM, first compound 0.1 µM
[10] = second compound 0.1 µM, first compound 0.0316 µM
[11] = second compound 0.1 µM, first compound 0.1 µM
[12] = second compound 0.316 µM, first compound 0.0316 µM
[13] = second compound 0.316 µM, first compound 0.1 µM
[14] = second compound 1 µM, first compound 0.0316 µM
[15] = second compound 1 µM, first compound 0.1 µM

O=C(c1ccc(F)c(F)c1Nc1ccc(I)cc1F)N1CC(O)([C@@H]2CCCCN2)C1 + CCN1C(C(=O)NC23CCC(C(=O)O)(CC2)CC3)C(c2cccc(Cl)c2F)C2(C(=O)Nc3cc(Cl)ccc32)C12CCCCC2
inactive: viability, T/C (second compound 0.03 µM, first compound 0.00316 µM) 90.3% | viability, T/C (second compound 0.03 µM, first compound 0.01 µM) 88.7% | viability, T/C (second compound 0.03 µM, first compound 0.0316 µM) 68.4% | viability, T/C (second compound 0.03 µM, first compound 0.1 µM) 49.4% | viability, T/C (second compound 0.03 µM, first compound 0.316 µM) 41.6% | viability, T/C (second compound 0.03 µM, first compound 1 µM) 34.6% | viability, T/C (second compound 0.0949 µM, first compound 0.00316 µM) 99.7% | viability, T/C (second compound 0.0949 µM, first compound 0.01 µM) 92.9% | viability, T/C (second compound 0.0949 µM, first compound 0.0316 µM) 66.8% | viability, T/C (second compound 0.0949 µM, first compound 0.1 µM) 45.5% | viability, T/C (second compound 0.0949 µM, first compound 0.316 µM) 42.9% | viability, T/C (second compound 0.0949 µM, first compound 1 µM) 32.1% | viability, T/C (second compound 0.3 µM, first compound 0.00316 µM) 94.9% | viability, T/C (second compound 0.3 µM, first compound 0.01 µM) 87.8% | viability, T/C (second compound 0.3 µM, first compound 0.0316 µM) 66.3% | viability, T/C (second compound 0.3 µM, first compound 0.1 µM) 45.4% | viability, T/C (second compound 0.3 µM, first compound 0.316 µM) 43.9% | viability, T/C (second compound 0.3 µM, first compound 1 µM) 33.2% | viability, T/C (second compound 0.949 µM, first compound 0.00316 µM) 87.3% | viability, T/C (second compound 0.949 µM, first compound 0.01 µM) 86.3% | viability, T/C (second compound 0.949 µM, first compound 0.0316 µM) 64.2% | viability, T/C (second compound 0.949 µM, first compound 0.1 µM) 46.8% | viability, T/C (second compound 0.949 µM, first compound 0.316 µM) 40% | viability, T/C (second compound 0.949 µM, first compound 1 µM) 32% | viability, T/C (second compound 3 µM, first compound 0.00316 µM) 97.4% | viability, T/C (second compound 3 µM, first compound 0.01 µM) 89.2% | viability, T/C (second compound 3 µM, first compound 0.0316 µM) 61.5% | viability, T/C (second compound 3 µM, first compound 0.1 µM) 37.6% | viability, T/C (second compound 3 µM, first compound 0.316 µM) 37% | viability, T/C (second compound 3 µM, first compound 1 µM) 28.8%
56.2 nM: IC50 (curve of first compound, second compound 3 µM)
81.6 nM: IC50 (curve of first compound, second compound 0.949 µM)
81.4 nM: IC50 (curve of first compound, second compound 0.0949 µM)
83.6 nM: IC50 (curve of first compound, second compound 0.3 µM)
96.2 nM: IC50 (curve of first compound, second compound 0.03 µM)

NC1CCC(NC2CC2c2ccccc2)CC1 (configuration not stated)
inactive: viability, T/C (compound 0.000316 µM) 97.1% and 101% and 95.9% | viability, T/C (compound 0.001 µM) 97.4% and 108% and 97% | viability, T/C (compound 0.00316 µM) 89.8% and 82% and 93.5% | viability, T/C (compound 0.01 µM) 90.4% and 90% and 91.2% | viability, T/C (compound 0.0316 µM) 105% and 93.5% and 87% | viability, T/C (compound 0.1 µM) 90.1% and 91.9% and 91.5%
> 100 nM: IC50 (curve of compound)

C#Cc1c(F)ccc2cc(O)cc(-c3ncc4c(N5CC6CCC(C5)N6)nc(OCC56CCCN5CC(F)C6)nc4c3F)c12 (configuration not stated) + CNC(C)C(=O)NC1CN(S(=O)(=O)c2cccc(S(=O)(=O)N3CCC4CCC(C(=O)NC(c5ccccc5)c5ccccc5)N4C(=O)C(NC(=O)C(C)NC)C3)c2)CCC2CCC(C(=O)NC(c3ccccc3)c3ccccc3)N2C1=O
5080 nM: IC50 [3]
4980 nM: IC50 [4]
inactive: viability, T/C [6] 97% | viability, T/C [7] 99.1% | viability, T/C (second compound 0.01 µM, first compound 0.316 µM) 95.8% | viability, T/C (second compound 0.01 µM, first compound 1 µM) 84.2% | viability, T/C (second compound 0.01 µM, first compound 3.16 µM) 70.8% | viability, T/C (second compound 0.01 µM, first compound 10 µM) 40.2% | viability, T/C [8] 90.2% | viability, T/C [9] 88.1% | viability, T/C (second compound 0.0316 µM, first compound 0.316 µM) 91.8% | viability, T/C (second compound 0.0316 µM, first compound 1 µM) 68.5% | viability, T/C (second compound 0.0316 µM, first compound 3.16 µM) 66.5% | viability, T/C (second compound 0.0316 µM, first compound 10 µM) 40.3% | viability, T/C [10] 84.9% | viability, T/C [11] 89.5% | viability, T/C (second compound 0.1 µM, first compound 0.316 µM) 76.2% | viability, T/C (second compound 0.1 µM, first compound 1 µM) 64.8% | viability, T/C (second compound 0.1 µM, first compound 3.16 µM) 63.6% | viability, T/C (second compound 0.1 µM, first compound 10 µM) 37% | viability, T/C [12] 84.5% | viability, T/C [13] 84.2% | viability, T/C (second compound 0.316 µM, first compound 0.316 µM) 75.3% | viability, T/C (second compound 0.316 µM, first compound 1 µM) 65.9% | viability, T/C (second compound 0.316 µM, first compound 3.16 µM) 61.2% | viability, T/C (second compound 0.316 µM, first compound 10 µM) 37.8% | viability, T/C [14] 93.3% | viability, T/C [15] 95.2% | viability, T/C (second compound 1 µM, first compound 0.316 µM) 76.1% | viability, T/C (second compound 1 µM, first compound 1 µM) 71% | viability, T/C (second compound 1 µM, first compound 3.16 µM) 65% | viability, T/C (second compound 1 µM, first compound 10 µM) 35.2%
5110 nM: IC50 [5]
6860 nM: IC50 [1]
6230 nM: IC50 [2]

Cn1ncnc1[C@H]1c2n[nH]c(=O)c3cc(F)cc(c23)N[C@@H]1c1ccc(F)cc1 + CNC(C)C(=O)NC1CN(S(=O)(=O)c2cccc(S(=O)(=O)N3CCC4CCC(C(=O)NC(c5ccccc5)c5ccccc5)N4C(=O)C(NC(=O)C(C)NC)C3)c2)CCC2CCC(C(=O)NC(c3ccccc3)c3ccccc3)N2C1=O
inactive: viability, T/C (second compound 0.01 µM, first compound 0.000316 µM) 92.5% | viability, T/C (second compound 0.01 µM, first compound 0.001 µM) 86.9% | viability, T/C (second compound 0.01 µM, first compound 0.00316 µM) 85.9% | viability, T/C (second compound 0.01 µM, first compound 0.01 µM) 84.3% | viability, T/C [6] 92.3% | viability, T/C [7] 86.5% | viability, T/C (second compound 0.0316 µM, first compound 0.000316 µM) 81.8% | viability, T/C (second compound 0.0316 µM, first compound 0.001 µM) 77.6% | viability, T/C (second compound 0.0316 µM, first compound 0.00316 µM) 84.5% | viability, T/C (second compound 0.0316 µM, first compound 0.01 µM) 73.2% | viability, T/C [8] 73.9% | viability, T/C [9] 74.6% | viability, T/C (second compound 0.1 µM, first compound 0.000316 µM) 78.3% | viability, T/C (second compound 0.1 µM, first compound 0.001 µM) 88.3% | viability, T/C (second compound 0.1 µM, first compound 0.00316 µM) 81.6% | viability, T/C (second compound 0.1 µM, first compound 0.01 µM) 71.7% | viability, T/C [10] 73.4% | viability, T/C [11] 68.5% | viability, T/C (second compound 0.316 µM, first compound 0.000316 µM) 81.5% | viability, T/C (second compound 0.316 µM, first compound 0.001 µM) 85.8% | viability, T/C (second compound 0.316 µM, first compound 0.00316 µM) 85.1% | viability, T/C (second compound 0.316 µM, first compound 0.01 µM) 71.5% | viability, T/C [12] 80.7% | viability, T/C [13] 74.8% | viability, T/C (second compound 1 µM, first compound 0.000316 µM) 88.3% | viability, T/C (second compound 1 µM, first compound 0.001 µM) 94.4% | viability, T/C (second compound 1 µM, first compound 0.00316 µM) 78.6% | viability, T/C (second compound 1 µM, first compound 0.01 µM) 72.7% | viability, T/C [14] 76.1% | viability, T/C [15] 69.1%
> 100 nM: IC50 [1] | IC50 [2] | IC50 [3] | IC50 [4] | IC50 [5]
